From patent US11332438B2, “Creatine prodrugs, compositions and methods of use thereof” (Ultragenyx Pharmaceutical Inc., priority 2017, dated 2022)
Entries after “also recorded” stand apart in the source; their conditions may differ.

Tests used:
[1] = Chemical stability in phosphate buffered saline (PBS); format: physicochemical; conditions: Table 2A, 50 μM prodrug
Summary of the method: (§1)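 Incubations used 50 μM compound at 37 °C in phosphate buffered saline, fasted simulated intestinal fluid without pancreatin, or fasted simulated gastric fluid without pepsin.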

[2] = Chemical stability in simulated intestinal fluid (SIF) without pancreatin; format: physicochemical; conditions: Table 2A, 50 μM prodrug
Method: Chemical stability of creatine prodrugs in phosphate buffered saline (PBS), simulated intestinal fluid (SIF) without pancreatin, simulated gastric fluid (SGF) without pepsin were determined by LC-UV, LC-CAD, LC-UV-CAD or LC-MS/MS as appropriate. Creatine prodrugs of the present disclosure (50 μM) were incubated at 37° C. according to described protocols and prodrug levels were compared between t=0, t=15, t=60, and t=120 mins by peak area ratio to determine the percentage remained at t=120 mins (2 h).
Protocol for PBS, SIF and SGF stability for screening:
Prodrugs (50 μM) were incubated in PBS, FaSSIF (Biorelevant) or FaSSGF (Biorelevant) at 37° C.

[3] = Chemical stability in simulated gastric fluid (SGF) without pepsin; format: physicochemical; conditions: Table 2A, 50 μM prodrug
Summary of the method: as §1

[4] = biological target: T1, recombinant human FAAH enzyme (rFAAH) (Homo sapiens, UniProt O00519); assay: Direct prodrug cleavage with recombinant human FAAH enzyme (rFAAH): d3-Cr release and d3-Crn cyclization; format: biochemical; conditions: 200 μM prodrug, 3 h, % of nominal input; for Prodrug Cleavage rFAAH net d3-Cr release: negative control subtracted
T1 sequence (O00519 1-579): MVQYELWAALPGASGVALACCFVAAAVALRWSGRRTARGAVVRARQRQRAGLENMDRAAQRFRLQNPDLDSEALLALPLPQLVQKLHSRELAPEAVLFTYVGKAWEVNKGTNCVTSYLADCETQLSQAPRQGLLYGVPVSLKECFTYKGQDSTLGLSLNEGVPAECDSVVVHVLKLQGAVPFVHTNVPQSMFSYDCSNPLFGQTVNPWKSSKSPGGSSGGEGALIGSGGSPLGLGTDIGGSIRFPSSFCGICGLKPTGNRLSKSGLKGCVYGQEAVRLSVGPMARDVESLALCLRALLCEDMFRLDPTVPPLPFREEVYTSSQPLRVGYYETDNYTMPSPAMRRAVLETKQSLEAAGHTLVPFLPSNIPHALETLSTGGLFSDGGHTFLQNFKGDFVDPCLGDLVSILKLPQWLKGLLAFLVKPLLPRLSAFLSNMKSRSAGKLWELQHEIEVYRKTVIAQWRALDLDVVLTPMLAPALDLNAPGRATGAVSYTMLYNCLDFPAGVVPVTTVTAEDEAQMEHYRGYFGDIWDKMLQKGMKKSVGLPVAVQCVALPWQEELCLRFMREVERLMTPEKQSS
Method: (§2) For assessment of the ability of prodrugs to release creatine, and to release creatine preferentially to unwanted cyclization to creatinine, d3-labeled (deuterium labeled methyl group) prodrugs are incubated with brain homogenates (e.g., mouse, human) specially prepared to preserve FAAH activity or with rFAAH for direct cleavage study. The use of d3-labelled prodrugs is essential in order to distinguish prodrug-derived creatine (d3-creatine) from high concentrations of endogenous (non-labeled) creatine. […] Prodrugs are tested at final concentrations of 20 μM and 200 μM. Approximately 3-4 mg of homogenate is used for each reaction. Co-factor (NADPH) is included at a final concentration of 1 mM. FAAH activity is confirmed by conversion of 7-amino-4-methyl Coumarin-Arachidonamide to 7-amino-4-methyl Coumarin by fluorescent assay. Negative controls include incubations without brain homogenate/rFAAH (but with NADPH) or 65° C. heat inactivated brain homogenate/rFAAH to assess non-enzymatic prodrug cleavage under the conditions of the assay and FAAH inhibitor […] at the concentration of 1 μM. Prodrug incubations are prepared by addition of 8 μL of prodrug stock solution (500 or 5000 μM in DMSO or DMSO/methanol) to assay buffered, followed by addition of brain homogenate/rFAAH. […] The samples are centrifuged at 15890×g for 10 minutes at 4° C., followed by transfer of the supernatants for storage at −20° C. pending LC-MS/MS analysis. Sample supernatants are analyzed by LC-MS/MS for determination of d3-prodrug, d3-creatine and d3-creatinine levels.
(§3) Deuterated creatine prodrugs were tested in 3 different in vitro assays to assess d3-creatine (d3-Cr) release and cyclization to form d3-creatinine (d3-Crn). These assays were 1) direct cleavage with recombinant human FAAH enzyme (rFAAH), 2) cleavage in mouse brain homogenates (MBH), and 3) human brain homogenates (HBH).
(§4) Creatine prodrug cleavage efficiency was determined by percentage of net d3-Cr release in μM (positive reaction subtracted from negative control of no brain homogenate/rFAAH or inactivated brain homogenate/rFAAH) over nominal input concentration of 200 μM prodrug at 3 h. Propensity for creatinine cyclization was determined by percentage of d3-Crn generated in μM in positive reaction over nominal input concentration of 200 μM prodrug at 3 h.

[5] = Prodrug cleavage in human brain homogenates (HBH): d3-Cr release and d3-Crn cyclization; format: in vitro ADME; conditions: for Prodrug Cleavage Human BH d3-Crn release / Prodrug Cleavage Human BH net d3-Cr release: 200 μM prodrug, 3 h, % of nominal input; for Prodrug Cleavage Human BH net d3-Cr release: negative control subtracted
Method: as §2, §3, §4

ARPE-19 cells = assay: Creatine prodrug uptake and d3-creatine release in ARPE-19 cells (Table 4A); format: cell-based, human; conditions: 50 μM, 6 h, cytosol fraction, corrected for total protein
Method: At the end of the incubation, supernatant will be collected from each well to assess prodrug recovery. Cells are then washed 3× with PBS. Plates, prodrugs in supernatant, prodrugs in serum-free medium are stored at −80° C. until harvest (within 5 days). On the day of extraction, 130 uL of lysis buffer (10 mM Tris pH 7.4) with EDTA-free protease inhibitors is added to each well and cells are removed using a cell scraper. Lysates are further homogenized using a handheld pestle and then centrifuged at 16,000 g, […], for 10 minutes to collect cytosol fraction. Pellets will be stored at −80° C. until further analysis. A 4× volume of stop solution (80% ACN/20% water) will be added to the cytosol fraction, supernatant and medium. Samples will be centrifuged at 15,890 g (13,000 rpm) at 4° C. for 10 mins. Supernatant will be collected and stored at −80° C. within 5 days prior to LC-MS/MS analysis. Dosing solutions for each prodrug (10 μM) will be assayed to verify concentration. Cells alone with vehicle will serve as controls to assess background signal for LC-MS/MS. Two independent runs of experiment will be conducted.
Nine fatty acid amide creatine prodrugs were tested in human ARPE-19 cells to assess prodrug uptake and d3-Cr release inside the cells. 50 μM of prodrug was incubated in culture medium with the cells and the cells were harvested at 6 h. Quantitation of prodrugs, d3-Cr (d3-creatine) and d3-Cm (d3-creatinine) in the cytosol fraction was corrected for total protein concentration.

[6] = In vivo IV dosing in CrT KO mice: prodrug, d3-Cr and d3-Crn in brain (Table 5); conditions: brain, CrT KO mice
Method: A creatine prodrug is administered as an intravenous bolus injection to groups of three to six adult male CD1 mice at an appropriate creatine prodrug dose equivalent per kg body weight. Animals are conscious at the time of the experiment. Blood samples (0.3 mL) are obtained via a jugular vein cannula at intervals over 8 hours following IV dosing. Blood is processed into plasma, then the plasmais immediately frozen at −80° C. until analyzed by LC-MS/MS. Samples may also be taken form the CSF or other appropriate biological fluid. Brains were collected and flash frozen immediately in liquid nitrogen. Brains were homogenized in 100 mM KPI buffer with a cocktail of anti-proteases on the same day as the sample preparation required for LC-MS/MS analysis.
Several prodrugs with either free COOH group and ester linkage and macrocycles were selected for IV dosing in animal study to assess PK and d3-Cr release in brain in vivo. Prodrugs were IV dosed in CrT KO mice at 10, 15, or 25 mg/kg in animal studies. Mouse brain homogenates (MBH) were prepared from brains collected from mice after dosing. Levels of prodrug, d3-Cr and d3-Crn were quantified in brain and expressed in brain concentration (for macrocycle prodrugs) or AUC (for linear prodrugs) over time. Very few prodrugs were detected in MBH.

[7] = d3-Creatine and d3-creatinine concentration in CrT KO mice brain after IV bolus dose (FIGS. 3 and 4, Table 6); format: in vivo; conditions: CrT KO mice brain, 8 h after IV bolus dose
Method: The brain concentrations of d3-creatine and d3-creatinine was measured in CrT KO mice following 10 mg/kg single dose IV bolus dose of compound 14 and 15 (FIGS. 3 and 4). As shown by FIG. 3, brain d3-creatine concentration was higher following administration of compound 15 compared to compound 14. […] Without bound to any theory, the macrocyclic compound 15 prodrug reduces d3-creatine cyclization to d3-creatinine when compared to linear compound 14 prodrug.
The concentration of d3-creatine in CrT KO mice brain were also measured for other compounds disclosed in the present application as shown in Table 6. The concentrations of d3-creatine, d3-creatinine and creatine prodrugs are measured by LC-MS/MS. The brain sample is homogenized with 4× (weight to volume) of KPI 100 mM buffer containing anti-proteases and anti-phosphatases (if needed). 50 μl of brain homogenate is then de-proteinized using 4× volume/volume of a solution containing 80% acetonitrile and 20% water with bucetin, d5-Cr (internal standard). The plate is then spun at 4000 rpm, 10 minutes, 4° C. and samples are transferred to a new plate for bioanalysis. Each analyte in each sample was quantitated against a curve in matching biomatrix using an authentic standard.

[8] = in vitro cleavage assays (Table 3A)

SMILES	Chemical Stability PBS % T0 at 2 hours at 37 °C. [1] [%]	Chemical Stability SIF, no enzyme % T0 at 2 hours at 37 °C. [2] [%]	Chemical Stability SGF, no enzyme % T0 at 2 hours at 37 °C. [3] [%]	Prodrug Cleavage rFAAH d3-Crn release [4] [%]	Prodrug Cleavage rFAAH net d3-Cr release [4] [%]	Prodrug Cleavage Human BH d3-Crn release [5] [%]	Prodrug Cleavage Human BH net d3-Cr release [5] [%]	d3-Cr, Cellular Uptake (ARPE-19 cells) [nmol/mg protien]	d3-Crn, Cellular Uptake (ARPE-19 cells) [nmol/mg protien]	prodrug, Cellular Uptake (ARPE-19 cells) [nmol/mg protien]	d3-Cr release in vitro (in words) [5, 8]	d3-Crn (creatinine) cyclization in vitro (in words) [5, 8]	d3-Cr/d3-Crn release ratio in vivo (in words) [6]	Concentration of d3-Cr in CrT KO mice brain [7]
[2H]C([2H])([2H])N(CC(=O)[O-])C(=N)NC(=O)CCCCCCCCCCCCC.[Li+] [Compound 7, Lithium 2-(1-trideuteriomethyl-3-tetradecanoylguanidino) Acetate]	90	77	63	1.7	146.0	0.8	50.8	18.6	<0.2	13.1				
Cl.[2H]C([2H])([2H])N(CC(=O)OC(C)C)C(=N)NC(=O)CCCCCCCCCCCC [Compound 10-HCl]	11	46	83	217.0	1.2	251.5	4.3				small amount of d3-Cr	predominantly cyclized into creatinine; also recorded: predominantly creatinine cyclization	favorable d3-Cr/d3-Crn ratio	
[2H]C([2H])([2H])N1CC(=O)OC(CCCCC)CCCCCC(=O)NC1=N (stereo not drawn) [Compound FF, 5-Imino-4-trideuteriomethyl-13-pentyl-1-oxa-4,6-diazacyclotridecane-2,7-dione]														BLOQ
